This is an account of results in US20210181109A1 (FUJIFILM Corporation, priority 2018, published 2021).

Like-named read-outs stand apart in the source and are kept apart here.

Data set [1] in a line: NAC depletion percent, HPLC-fluorescence detection. The essentials: (§1)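 NAC at 5 μmol/L in pH 8.0 phosphate buffer reacted with test substance (1 mmol/L stock in water, acetonitrile, acetone or 5% DMSO/acetonitrile) 24 h at 25 °C in the dark, n=3. Stopped with TFA (0.5% final); unreacted NAC quantified by HPLC, depletion percent calculated against blank without test substance.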

The nature of data set [2]: NAL depletion percent, HPLC-UV detection (281 nm). Conditions: Reference (UV method). The essentials:
(§2)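 NAL (5 μmol/L, pH 10.2 phosphate buffer) reacted with test substance (1 mmol/L stock in water, acetonitrile, acetone or 5% DMSO/acetonitrile) for 24 h at 25 °C in the dark; stopped with TFA to 0.5%. Unreacted NAL quantified by HPLC (UV or fluorescence), n=3; depletion % relative to substance-free blank.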

Data set [3] can be described thus: Average score of NAC and NAL depletion and prediction of skin allergenicity, UV method. Conditions: for Average score: test substance solution 1 mmol/L. The essentials:
(§3)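 Score is the mean of NAC and NAL depletion percentages, rounded at the second decimal place. Test substances classed as allergenic (S) or non-allergenic (NS) from depletion of NAC, NAL, or their average score.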

For data set [4] the following is noted: cited from earlier work.
Data set [5] in a line: NAC depletion percent, HPLC-UV detection (281 nm). To be noted: Reference (UV method). The essentials: as §1
Data set [6] can be described thus: Average score of NAC and NAL depletion and prediction of skin allergenicity, fluorescence method. To be noted: for Average score: test substance solution 1 mmol/L. The essentials:
as §3

Data set [7] is described as follows: NAL depletion percent, HPLC-fluorescence detection. The essentials:
as §2

[8] abbreviates: single substance, test substance solution 1 mmol/L, fluorescence method.
Where [9] appears, read: single substance, test substance solution 1 mmol/L.
Where [10] appears, read: single substance, Reference (UV method).
Setting [11] is: single substance, fluorescence method.
Setting [12] is: single substance, Reference (UV method), criterion average score […].
[13] abbreviates: known values, LLNA-test-based classification, − for non-allergenic substances.
The mark [14] stands for this setting: single substance, fluorescence method, criterion average score […].
[15] abbreviates: Fluorescence method, non-allergenic substance.

For `O=c1[nH]sc2ccccc12` [1,2-Benzisothiazolin-3-one], the “NAC depletion (%)” value in data set [1] (setting [8]) is 98.8%; in data set [5] (setting [9]), 100.0%. Also, the results for the “NAL depletion (%)” value in data set [2] (setting [9]) and in data set [7] (setting [8]) were 0.4% and 0.2%, respectively. In addition, the Prediction result in data set [3] and in data set [6] was “S (key: S represents as being an allergenic substance; NS represents as being a non-allergenic substance)” throughout. In addition, the Average score is reported as 50.2% in data set [3] (setting [10]) and 49.5% in data set [6] (setting [11]). The “EC3 (%)” value in data set [4] (in vivo) was 2.3%.

With `CCC(=O)C=Cc1ccc(OC)cc1` [1-(4-Methoxyphenyl)-1-penten-3-one], the “NAC depletion (%)” value in data set [1] (setting [8]) amounted to 1.2%; in data set [5] (setting [9]) it was 1.6%. For the same compound, the figures for the “NAL depletion (%)” value in data set [2] (setting [9]) and in data set [7] (setting [8]) were 4.2% and 0.4%, respectively. In addition, the Prediction result in data set [3] (setting [12]) and in data set [6] (setting [14]) was “NS (NS represents as being a non-allergenic substance)” throughout. In addition, the Average score is 2.9% in data set [3] (setting [10]) and 0.8% in data set [6] (setting [11]). In addition, the “EC3 (%)” value in data set [4] (setting [13]) is reported as 9.3%.

With `CC(C)(C)C(=O)CC(=O)C(C)(C)C` [2,2,6,6-Tetramethyl-3,5-heptanedione], the “NAC depletion (%)” value in data set [1] (setting [8]) was determined as 0.0%; in data set [5] (setting [9]), 0.5%. In addition, the results for the “NAL depletion (%)” value in data set [2] (setting [9]) and in data set [7] (setting [8]) were 1.6% and 0.0%, respectively. The Prediction result in data set [3] (setting [12]) and in data set [6] (setting [14]) was “NS (NS represents as being a non-allergenic substance)” each time. For the same compound, the results for the Average score in data set [3] (setting [10]) and in data set [6] (setting [11]) were 1.1% and 0.0%, respectively. Further, in data set [4] (setting [13]), the “EC3 (%)” value is reported as 27%.

Regarding `CCC=CC=CC=O` [2,4-Heptadienal], the entries for the “NAC depletion (%)” value in data set [1] (setting [8]) and in data set [5] (setting [9]) were 46.2% and 35.8%, respectively. Further, the “NAL depletion (%)” value in data set [2] (setting [9]) is reported as 50.1%; in data set [7] (setting [8]) it was 11.8%. Also, the Prediction result in data set [3] (setting [12]) and in data set [6] (setting [14]) was “S (S represents as being an allergenic substance)” each time. Moreover, the Average score in data set [3] (setting [10]) is given as 42.9%; in data set [6] (setting [11]), 29.0%. The “EC3 (%)” value in data set [4] (setting [13]) was 4%.

On to `Sc1nc2ccccc2s1` [2-Mercaptobenzothiazole], for which the “NAC depletion (%)” value in data set [1] (setting [8]) is listed as 65.5%; in data set [5] (setting [9]), 56.6%. Besides, the “NAL depletion (%)” value in data set [2] (setting [9]) is reported as 0.3%; in data set [7] (setting [8]) it was 0.0%. Also, the Prediction result in data set [3] (setting [12]) and in data set [6] (setting [14]) was “S (S represents as being an allergenic substance)” throughout. Besides, the Average score in data set [3] (setting [10]) was 28.4%; in data set [6] (setting [11]), 32.7%. Moreover, the “EC3 (%)” value in data set [4] (setting [13]) is reported as 1.7%.

Turning to `Cn1sccc1=O` [2-Methyl-2H-isothiazol-3-one], the figures for the “NAC depletion (%)” value in data set [1] (setting [8]) and in data set [5] (setting [9]) were 98.5% and 94.0%, respectively. Also, the “NAL depletion (%)” value in data set [2] (setting [9]) is reported as 7.0%; in data set [7] (setting [8]), 4.6%. For the same compound, the Prediction result in data set [3] (setting [12]) and in data set [6] (setting [14]) was “S (S represents as being an allergenic substance)” throughout. Further, the Average score in data set [3] (setting [10]) is on record as 50.5%; in data set [6] (setting [11]) it was 51.6%. In data set [4] (setting [13]), the “EC3 (%)” value is given as 1.9%.

For the compound `CC(C=O)c1ccccc1` (stereo not drawn) [2-Phenylpropionaldehyde], the figures for the “NAC depletion (%)” value in data set [1] (setting [8]) and in data set [5] (setting [9]) were 8.5% and 8.0%, respectively. Besides, the “NAL depletion (%)” value amounted to 4.6% in data set [2] (setting [9]) and 7.3% in data set [7] (setting [8]). In addition, the Prediction result in data set [3] (setting [12]) and in data set [6] (setting [14]) was “S (S represents as being an allergenic substance)” throughout. Also, the Average score is 6.3% in data set [3] (setting [10]) and 7.9% in data set [6] (setting [11]). Further, the “EC3 (%)” value in data set [4] (setting [13]) was 6.3%.

As for `C=CCc1ccc(OC)cc1` [4-Allylanisole], the “NAC depletion (%)” value is 15.0% in data set [1] (setting [8]) and 27.0% in data set [5] (setting [9]). Also, the results for the “NAL depletion (%)” value in data set [2] (setting [9]) and in data set [7] (setting [8]) were 3.9% and 0.7%, respectively. For the same compound, the Prediction result in data set [3] (setting [12]) and in data set [6] (setting [14]) was “S (S represents as being an allergenic substance)” each time. The values for the Average score in data set [3] (setting [10]) and in data set [6] (setting [11]) were 15.4% and 7.9%, respectively. Also, the “EC3 (%)” value in data set [4] (setting [13]) is 18%.

`Cn1sc(Cl)cc1=O` [5-Chloro-methyl-4-isothiazolin-3-one]: the “NAC depletion (%)” value in data set [1] (setting [8]) and in data set [5] (setting [9]) was 100.0% each time. The “NAL depletion (%)” value in data set [2] (setting [9]) was 17.7%; in data set [7] (setting [8]), 9.3%. Also, the Prediction result in data set [3] (setting [12]) and in data set [6] (setting [14]) was “S (S represents as being an allergenic substance)” each time. For the same compound, the figures for the Average score in data set [3] (setting [10]) and in data set [6] (setting [11]) were 58.8% and 54.7%, respectively. Further, in data set [4] (setting [13]), the “EC3 (%)” value was 0.009%.

For `NC1=CC(=Nc2ccc(N)cc2)C(N)=CC1=Nc1ccc(N)cc1` [Bandrowski's base], the “NAC depletion (%)” value in data set [1] (setting [8]) and in data set [5] (setting [9]) was 100.0% each time. Also, the “NAL depletion (%)” value in data set [2] (setting [9]) is on record as 5.7%; in data set [7] (setting [8]) it was 1.7%. In addition, the Prediction result in data set [3] (setting [12]) and in data set [6] (setting [14]) was “S (S represents as being an allergenic substance)” in each case. The Average score in data set [3] (setting [10]) is reported as 52.9%; in data set [6] (setting [11]), 50.8%. The “EC3 (%)” value in data set [4] (setting [13]) is recorded as 0.008%.

Regarding `c1ccc(COOCc2ccccc2)cc1` [Benzyl peroxide], the “NAC depletion (%)” value in data set [1] (setting [8]) and in data set [5] (setting [9]) was 100.0% each time. The “NAL depletion (%)” value in data set [2] (setting [9]) stood at 50.6%; in data set [7] (setting [8]) it was 63.7%. The Prediction result in data set [3] (setting [12]) and in data set [6] (setting [14]) was “S (S represents as being an allergenic substance)” each time. Further, the Average score in data set [3] (setting [10]) is 75.3%; in data set [6] (setting [11]), 81.9%. For the same compound, in data set [4] (setting [13]), the “EC3 (%)” value is on record as 0.004%.

As for `ClC(Cl)c1ccccc1` [Benzylidene dichloride], the figures for the “NAC depletion (%)” value in data set [1] (setting [15]) and in data set [5] (non-allergenic substance) were 2.1% and 0.9%, respectively. Further, the “NAL depletion (%)” value in data set [2] (non-allergenic substance) is given as −0.3%; in data set [7] (setting [15]) it was 1.4%. The Prediction result in data set [3] and in data set [6] was “NS (key: S represents as being an allergenic substance; NS represents as being a non-allergenic substance)” in each case. In data set [4] (in vivo), the “EC3 (%)” value is reported as “−”.

On to `CC(=O)C=Cc1ccccc1` [Benzylideneacetone], for which the “NAC depletion (%)” value was 67.3% in data set [1] (setting [8]) and 44.9% in data set [5] (setting [9]). The results for the “NAL depletion (%)” value in data set [2] (setting [9]) and in data set [7] (setting [8]) were 7.2% and 10.0%, respectively. Besides, the Prediction result in data set [3] (setting [12]) and in data set [6] (setting [14]) was “S (S represents as being an allergenic substance)” throughout. Moreover, the Average score was 26.1% in data set [3] (setting [10]) and 38.6% in data set [6] (setting [11]). Also, the “EC3 (%)” value in data set [4] (setting [13]) is 3.7%.

With `CCN(CCNS(C)(=O)=O)c1ccc(N)c(C)c1.CCN(CCNS(C)(=O)=O)c1ccc(N)c(C)c1.O=S(=O)(O)O.O=S(=O)(O)O.O=S(=O)(O)O` [CD3], the “NAC depletion (%)” value in data set [1] (setting [8]) came to 100.0%; in data set [5] (setting [9]), 76.6%. The results for the “NAL depletion (%)” value in data set [2] (setting [9]) and in data set [7] (setting [8]) were 16.5% and 8.1%, respectively. Also, the Prediction result in data set [3] (setting [12]) and in data set [6] (setting [14]) was “S (S represents as being an allergenic substance)” in each case. Moreover, the Average score in data set [3] (setting [10]) is reported as 46.6%; in data set [6] (setting [11]), 54.0%. Besides, the “EC3 (%)” value in data set [4] (setting [13]) is 0.6%.

Turning to `Clc1ccccc1` [Chlorobenzene], the “NAC depletion (%)” value amounted to 1.3% in data set [1] (setting [15]) and 0.0% in data set [5] (non-allergenic substance). For the same compound, the “NAL depletion (%)” value was 0.7% in data set [2] (non-allergenic substance) and 0.1% in data set [7] (setting [15]). Further, the Prediction result in data set [3] and in data set [6] was “NS (key: S represents as being an allergenic substance; NS represents as being a non-allergenic substance)” throughout. In addition, the “EC3 (%)” value in data set [4] (in vivo) is “−”.

Take `O=CC=Cc1ccccc1` [Cinnamaldehyde]: the “NAC depletion (%)” value was determined as 54.1% in data set [1] (setting [8]) and 37.0% in data set [5] (setting [9]). Further, the “NAL depletion (%)” value is given as 13.1% in data set [2] (setting [9]) and 12.8% in data set [7] (setting [8]). In addition, the Average score in data set [3] (setting [10]) was 25.0%; in data set [6] (setting [11]) it was 33.4%. Besides, the “EC3 (%)” value in data set [4] (in vivo) is given as 3%.
